Test results: US8614239B2 (Novartis AG, priority 2009, dated 2013)

Experiments:
[1] = system: BRAF (V599E)-MEK1-ERK2 cascade (MAP kinase pathway); experiment: BRAF-MEK-ERK enzymatic cascade assay (TR-FRET); assay type: biochemical, human; conditions: compound at 10 μM, 45 min pre-incubation with enzymes, 100 μM ATP, 90 min reaction
Description: A BRAF-MEK-ERK cascade assay is used to evaluate the effects of these compounds as inhibitors of the MAP kinase pathway. An enzymatic cascade assay is set up using recombinant human activated BRAF (V599E) kinase (Cat No. 14-557), human full length unactive MEK1 kinase (Cat No. 14-706) and human full length unactive MAP Kinase 2/ERK2 (Cat No. 14-536) enzymes procured from Upstate. TR-FRET (Time resolved fluorescence resonance energy transfer) detection technology is used for the read out. The assay buffer solution contains 50 mM Tris pH 7.5, 10 mM MgCl2, 1 mM DTT, 0.01% Tween 20, 0.1 nM activated BRAF, 2 nM unactive MEK1, 10 nM unactive ERK2, 100 μM ATP and 500 nM long chain biotin-peptide substrate (LCB-FFKNIVTPRTPPP) in a 384 well format. The kinase reaction is stopped after 90 minutes with 10 mM EDTA and Lance detection mix (2 nM Eu-labeled phospho-serine/threonine antibody (Cat. No. AD0176-Perkin Elmer), 20 nM SA-APC (Cat No. CR130-100-Perkin Elmer) is added. The TR-FRET signal (Excitation at 340 nm, Emission at 615 nm and 665 nm) is read with […] on a Victor3 V fluorimeter. The data is calculated using the ratio of readings at 665 nm to 615 nm. The final concentration of DMSO is 2.5% in the assay. Compounds are screened at 10 μM concentration with pre-incubation of the enzymes in the presence of test compound for 45 minutes. […]
These assays described above are fully detailed in Han, Shulin, et. al., Bioorganic & Medicinal Chemistry Letters (2005) 15, 5467-5473, and in Yeh, et. al., Clin Cancer Res (2007) 13 (5), 1576-1583.
(§1) The compounds of the above Examples were evaluated as inhibitors of the MAP kinase pathway in a BRAF-MEK-ERK enzymatic cascade assay and in a cell viability assay, the results of which are collated in Table 1 below.

A375 cells = experiment: Cell viability assay in A375 cells (XTT); assay type: cell-based; conditions: XTT read-out three days after compound addition
Method: The cell viability assay in A375 cells is set up in a 96-well plate format using XTT. XTT is a yellow tetrazolium salt that is cleaved to an orange formazan dye by the mitochondria of metabolically active cells. The procedure allows for rapid determination in a microtitre plate, to give reproducible and sensitive results.
A375 cells are grown in DMEM media containing 10% FBS and 1 mM sodium pyruvate. Cells are trypsinized and seeded at 1000 cells/well. After allowing the cells to adhere overnight, compound is added to the wells at the following final concentrations: 10, 3, 1, 0.3, 0.1, 0.03, 0.01, 0.001, and 0.0001 μM. The assay is set up in triplicates for each concentration. DMSO concentrations are kept at 0.5%/well. Three days after compound addition, the XTT assay is performed. Wells are washed once with PBS. 100 μL of DMEM media without phenol red or FBS is added to each well. A working solution of XTT containing 1 mg/ml XTT and 100 μL of PMS (stock concentration 0.383 mg/ml) per 5 ml is prepared. 50 μL of the working solution of XTT is added to each well. Absorbance of the plate is read at 465 nm using a Spectramax 190 (Molecular Devices). The absorbance from wells with media and XTT alone, but without cells is considered the blank and subtracted from readings from all wells.
Percentage viability is calculated considering the blank subtracted value from wells treated with DMSO alone as 100% viable. G150 values are calculated using Graphpad Prism, using non-linear regression curve fit for sigmoidal dose response (variable slope).
The cell viability assay is further described in Scudiero, et. al., Cancer Research (1988) 48, 4827-4833; Weislow, et. al., J. Natl. Cancer Institute, (1989) 81, 577-586; and Roehm, et. al., J. Immunol. Methods [1991] 142:257-265.
as §1

Structure (SMILES): O=S(=O)(Nc1c(Nc2ccc(I)cc2F)c(F)c(F)c2ncoc12)C1(CO)CC1 [Example 1N, N-(4,5-Difluoro-6-(2-fluoro-4-iodophenylamino)benzo[d]oxazol-7-yl)-1-(hydroxymethyl)cyclopropane-1-sulfonamide]
- % inhibition (10 μM) [1]: 100%
- GI50 (A375 cells; Homo sapiens, A-375, 72 h): 186 nM

Structure (SMILES): CN(C)S(=O)(=O)Nc1c(Nc2ccc(Br)cc2F)c(F)c(F)c2ncoc12 [Example 1F, Dimethylsulfamic acid [4,5-difluoro-6-(2-fluoro-4-bromo-phenylamino)-benzooxazol-7-yl]-amide]
- % inhibition (10 μM) [1]: 99%
- GI50 (A375 cells; Homo sapiens, A-375, 72 h): 2370 nM

Structure (SMILES): Cc1nc2c(F)c(F)c(Nc3ccc(I)cc3F)c(NS(=O)(=O)N(C)C)c2o1 [Example 1B, Dimethylsulfamic acid [4,5-difluoro-6-(2-fluoro-4-iodo-phenylamino)-2-methyl-benzooxazol-7-yl]-amide]
- % inhibition (10 μM) [1]: 100%
- GI50 (A375 cells; Homo sapiens, A-375, 72 h): 2010 nM

Structure (SMILES): Cc1nc2c(F)c(F)c(Nc3ccc(I)cc3F)c(NS(=O)(=O)C3CC3)c2o1 [Example 1E, Cyclopropanesulfonic acid [4,5-difluoro-6-(2-fluoro-4-iodo-phenylamino)-2-methyl-benzooxazol-7-yl]amide]
- % inhibition (10 μM) [1]: 93%
- GI50 (A375 cells; Homo sapiens, A-375, 72 h): 1000 nM

Structure (SMILES): CN(C)S(=O)(=O)Nc1c(Nc2ccc(I)cc2F)c(F)c(F)c2ncoc12 [Example 1C, Dimethylsulfamic acid [4,5-difluoro-6-(2-fluoro-4-iodo-phenylamino)-benzooxazol-7-yl]amide]
- % inhibition (10 μM) [1]: 100%
- GI50 (A375 cells; Homo sapiens, A-375, 72 h): 646 nM

Structure (SMILES): O=S(=O)(Nc1c(Nc2ccc(Br)cc2F)c(F)c(F)c2ncoc12)C1CC1 [Example 1G]
- % inhibition (10 μM) [1]: 92%
- GI50 (A375 cells; Homo sapiens, A-375, 72 h): > 10000 nM

Structure (SMILES): O=S(=O)(Nc1c(Nc2ccc(I)cc2F)c(F)c(F)c2ccoc12)C1(CCO)CC1 [Example 2C, 1-(2-Hydroxy-ethyl)-cyclopropanesulfonic acid [4,5-difluoro-6-(2-fluoro-4-iodo-phenylamino)-benzofuran-7-yl]amide]
- % inhibition (10 μM) [1]: 100%
- GI50 (A375 cells; Homo sapiens, A-375, 72 h): 12 nM

Structure (SMILES): O=S(=O)(Nc1c(Nc2ccc(I)cc2F)c(F)c(F)c2ncoc12)C1(CC(O)CO)CC1 (centres unmarked) [Example 1I, 1-(2,3-Dihydroxy-propyl)-cyclopropanesulfonic acid [4,5-difluoro-6-(2-fluoro-4-iodo-phenylamino)-benzooxazol-7-yl]-amide]
- % inhibition (10 μM) [1]: 100%
- GI50 (A375 cells; Homo sapiens, A-375, 72 h): 47 nM

Structure (SMILES): O=S(=O)(Nc1c(Nc2ccc(I)cc2F)c(F)c(F)c2ccoc12)C1CC1 [Example 2A, Cyclopropane sulfonic acid [4,5-difluoro-6-(2-fluoro-4-iodo-phenylamino)-benzofuran-7-yl]amide]
- % inhibition (10 μM) [1]: 99%
- GI50 (A375 cells; Homo sapiens, A-375, 72 h): 29 nM

Structure (SMILES): O=S(=O)(Nc1c(Nc2ccc(I)cc2F)c(F)c(F)c2ncoc12)C1(COCc2ccccc2)CC1 [Example 1M, 1-(Benzyloxymethyl)-N-(4,5-difluoro-6-(2-fluoro-4-iodophenylamino)benzo[d]oxazol-7-yl)cyclopropane-1-sulfonamide]
- % inhibition (10 μM) [1]: 95%
- GI50 (A375 cells; Homo sapiens, A-375, 72 h): 3550 nM

Structure (SMILES): O=S(=O)(Nc1c(Nc2ccc(I)cc2F)c(F)c(F)c2ncoc12)C1CC1CO (centres unmarked) [Example 1L, N-(4,5-Difluoro-6-(2-fluoro-4-iodophenylamino)benzo[d]oxazol-7-yl)-2-(hydroxymethyl)cyclopropane-1-sulfonamide]
- % inhibition (10 μM) [1]: 99%
- GI50 (A375 cells; Homo sapiens, A-375, 72 h): 2700 nM

Structure (SMILES): C=CCC1(S(=O)(=O)Nc2c(Nc3ccc(I)cc3F)c(F)c(F)c3ncoc23)CC1 [Example 1D, 1-Allyl-cyclopropanesulfonic acid [4,5-difluoro-6-(2-fluoro-4-iodo-phenylamino)-benzooxazol-7-yl]-amide]
- % inhibition (10 μM) [1]: 100%
- GI50 (A375 cells; Homo sapiens, A-375, 72 h): 940 nM

Structure (SMILES): O=S(=O)(Nc1c(Nc2ccc(I)cc2F)c(F)c(F)c2ncoc12)C1(CC(O)CO)CC1 (single isomer, unassigned) [Example 1J-isomer 1, N-(4,5-Difluoro-6-(2-fluoro-4-iodophenylamino)benzo[d]oxazol-7-yl)-1-(2,3-dihydroxypropyl)cyclopropane-1-sulfonamide]
- % inhibition (10 μM) [1]: 99%
- GI50 (A375 cells; listed as 1J-isomer 1): 96 nM

Structure (SMILES): O=S(=O)(Nc1c(Nc2ccc(I)cc2F)c(F)c(F)c2ccoc12)C1(CC(O)CO)CC1 (centres unmarked) [Example 2B, 1-(2,3-Dihydroxy-propyl)-cyclopropanesulfonic acid [4,5-difluoro-6-(2-fluoro-4-iodo-phenylamino)-benzofuran-7-yl]amide]
- % inhibition (10 μM) [1]: 100%
- GI50 (A375 cells; Homo sapiens, A-375, 72 h): 17 nM

Structure (SMILES): O=S(=O)(Nc1c(Nc2ccc(I)cc2F)c(F)c(F)c2ccoc12)C1CC1CO (centres unmarked) [Example 2D, 2-Hydroxymethyl-cyclopropanesulfonic acid [4,5-difluoro-6-(2-fluoro-4-iodo-phenylamino)-benzofuran-7-yl]-amide]
- % inhibition (10 μM) [1]: 99%
- GI50 (A375 cells; Homo sapiens, A-375, 72 h): 119 nM

Structure (SMILES): O=S(=O)(Nc1c(Nc2ccc(I)cc2F)c(F)c(F)c2ncoc12)C1CC1COCc1ccccc1 (centres unmarked) [Example 1K, 2-(Benzyloxymethyl)-N-(4,5-difluoro-6-(2-fluoro-4-iodophenylamino)benzo[d]oxazol-7-yl)cyclopropane-1-sulfonamide]
- % inhibition (10 μM) [1]: 100%
- GI50 (A375 cells; Homo sapiens, A-375, 72 h): 5700 nM

Structure (SMILES): Cc1nc2c(F)c(F)c(Nc3ccc(Br)cc3F)c(NS(=O)(=O)C3CC3)c2o1 [Example 1H, Cyclopropanesulfonic acid [6-(4-bromo-2-fluoro-phenylamino)-4,5-difluoro-2-methyl-benzooxazol-7-yl]-amide]
- % inhibition (10 μM) [1]: 10%

Structure (SMILES): O=S(=O)(Nc1c(Nc2ccc(I)cc2F)c(F)c(F)c2ncoc12)C1(CC(O)CO)CC1 (single isomer, unassigned) [Example 1J-isomer 2, N-(4,5-Difluoro-6-(2-fluoro-4-iodophenylamino)benzo[d]oxazol-7-yl)-1-(2,3-dihydroxypropyl)cyclopropane-1-sulfonamide]
- % inhibition (10 μM) [1]: 99%
- GI50 (A375 cells; listed as 1J-isomer 2): 46 nM
